The test relates to NLRP3. Description: IL-1β secretion assay in PMA-differentiated, LPS/nigericin-stimulated THP-1 cells (384-well, ELISA read-out). Format: cell-based, human. The gist of the method:
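THP-1 cells differentiated with PMA (5 ng/mL, 40 h), primed in serum-free medium with 25 ng/mL LPS for 2 h, treated with compounds 1 h (0.5% DMSO), then stimulated with nigericin for 2 h at 37 °C. Supernatant IL-1β measured by ELISA; responses normalized to LPS+5 μM nigericin and LPS-only controls.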

Where [1] appears, read: Homo sapiens, THP-1, Table 4, IL-1β secretion, LPS/nigericin-stimulated THP-1 cells, read-out: IC50.
The mark [2] stands for this setting: Homo sapiens, THP-1, IL-1β secretion, PMA-differentiated THP-1 cells, LPS then nigericin stimulation, ELISA read at 450 nm, read-out: Activity.
Where [3] appears, read: IL-1β secretion, PMA-differentiated THP-1 cells, LPS then nigericin stimulation, ELISA read at 450 nm, read-out: Activity.
Setting [4] is: Table 4, IL-1β secretion, LPS/nigericin-stimulated THP-1 cells, read-out: IC50.

The structures appear in SMILES notation. Read-outs that look alike come from different tables or passages of the source.

For `O=C(CN1CC2(CC2)c2cc(Br)ccc2C1=O)Nc1nccc2cccnc12` [Example 349, 2-(6-bromo-1-oxospiro[3H-isoquinoline-4,1′-cyclopropane]-2-yl)-N-(1,7-naphthyridin-8-yl)acetamide], the IC50 under setting [1] came to 4760 nM.

Take `O=C(CN1C[C@]2(C[C@H]2F)c2cc(Br)ccc2C1=O)Nc1ncc(F)cn1` [Example 79, 2-[(2′R,4S)-6-bromo-2′-fluoro-1-oxospiro[3H-isoquinoline-4,1′-cyclopropane]-2-yl]-N-(5-fluoropyrimidin-2-yl)acetamide]: the IC50 reads like this: under setting [2], less than 10000 nM; under setting [1], 15 nM. On the same counts, the results for `Cc1cnc(NC(=O)CN2CC3(CC3)c3cc(Br)ccc3C2=O)nc1` [Example 202, 2-(6-bromo-1-oxospiro[3H-isoquinoline-4,1′-cyclopropane]-2-yl)-N-(5-methylpyrimidin-2-yl)acetamide] are less than 10000 nM and 187 nM. In the case of `O=C(CN1CC2(CC2)c2cc(Br)ccc2C1=O)Nc1ncc(C(F)F)cc1F` [Example 419, 2-(6-bromo-1-oxospiro[3H-isoquinoline-4,1′-cyclopropane]-2-yl)-N-[5-(difluoromethyl)-3-fluoropyridin-2-yl]acetamide], under setting [1], the IC50 was 769 nM.

As to `CCN1CCC12CC(NC(=O)CN1CC3(CC3)c3cc(Br)ccc3C1=O)C2` (centres unmarked) [Example 393, 2-(6-bromo-1-oxospiro[3H-isoquinoline-4,1′-cyclopropane]-2-yl)-N-(1-ethyl-1-azaspiro[3.3]heptan-6-yl)acetamide], the IC50 under setting [1] was 7890 nM. The same measure, in the same setting: next, `Cc1cnc(NC(=O)CN2CC3(CC3)c3cc(Br)ccc3C2=O)c(F)c1` [Example 396, 2-(6-bromo-1-oxospiro[3H-isoquinoline-4,1′-cyclopropane]-2-yl)-N-(3-fluoro-5-methylpyridin-2-yl)acetamide]: 1600 nM. In the case of `Cc1noc(NC(=O)CN2CC3(CC3)c3cc(Br)ccc3C2=O)c1C` [Example 115, 2-(6-bromo-1-oxospiro[3H-isoquinoline-4,1′-cyclopropane]-2-yl)-N-(3,4-dimethyl-1,2-oxazol-5-yl)acetamide], the IC50 is greater than 15000 nM under setting [2] and 15400 nM under setting [1]. On the same counts, the results for `O=C(CN1CC2(CC2)c2cc(Br)ccc2C1=O)Nc1ccc2cccnc2n1` [Example 199, 2-(6-bromo-1-oxospiro[3H-isoquinoline-4,1′-cyclopropane]-2-yl)-N-(1,8-naphthyridin-2-yl)acetamide] are less than 10000 nM and 1370 nM. Turning to `O=C(CN1C[C@@]2(C[C@@H]2F)c2cc(C(F)(F)F)ccc2C1=O)Nc1ncc(Cl)cn1` (single isomer, unassigned) [Example 239, N-(5-chloropyrimidin-2-yl)-2-[(2′s,4r)-2′-fluoro-1-oxo-6-(trifluoromethyl)spiro[3H-isoquinoline-4,1′-cyclopropane]-2-yl]acetamide], the IC50 runs as follows: under setting [3], less than 10000 nM; under setting [4], 37 nM. Take `O=C(CN1CC2(CC2)c2cc(F)ccc2C1=O)Nc1ncc(F)cn1` [Example 215, 2-(6-fluoro-1-oxospiro[3H-isoquinoline-4,1′-cyclopropane]-2-yl)-N-(5-fluoropyrimidin-2-yl)acetamide]: the IC50 reads like this: under setting [2], less than 10000 nM; under setting [1], 6860 nM.

Consider `CN1CCC(NC(=O)CN2CC3(CC3)c3cc(Br)ccc3C2=O)CC1=O` (centres unmarked) [Example 22, 2-(6-bromo-1-oxo-spiro[3H-isoquinoline-4,1′-cyclopropane]-2-yl)-N-(1-methyl-2-oxo-4-piperidyl)acetamide], for which the IC50 by setting is: under setting [2], 10000 to 15000 nM; under setting [1], 10900 nM. Consider `Cn1ncc2cnc(NC(=O)CN3CC4(CC4)c4cc(Br)ccc4C3=O)nc21` [Example 408, 2-(6-bromo-1-oxospiro[3H-isoquinoline-4,1′-cyclopropane]-2-yl)-N-(1-methylpyrazolo[3,4-d]pyrimidin-6-yl)acetamide], for which, under setting [1], the IC50 is 827 nM. The same measure, in the same setting: for `O=C(CN1CC2(CC2)c2cc(Br)ccc2C1=O)Nc1ccnnc1` [Example 410, 2-(6-bromo-1-oxospiro[3H-isoquinoline-4,1′-cyclopropane]-2-yl)-N-pyridazin-4-ylacetamide] the value was 1520 nM. For `O=C(CN1C[C@@]2(C[C@@H]2F)c2cc(Br)ccc2C1=O)Nc1ncc(F)cn1` (single isomer, unassigned) [Example 78], the IC50 reads like this: under setting [2], less than 10000 nM; under setting [1], 208 nM. On the same counts, the results for `N#Cc1ccc2nc(NC(=O)CN3CC4(CC4)c4cc(Br)ccc4C3=O)oc2c1` [Example 207, 2-(6-bromo-1-oxospiro[3H-isoquinoline-4,1′-cyclopropane]-2-yl)-N-(6-cyano-1,3-benzoxazol-2-yl)acetamide] are less than 10000 nM and 487 nM. Turning to `O=C(CN1CC2(CC2)c2cc(C(F)(F)F)ccc2C1=O)Nc1ncccn1` [Example 27, 2-[1-oxo-6-(trifluoromethyl)spiro[3H-isoquinoline-4,1′-cyclopropane]-2-yl]-N-pyrimidin-2-yl-acetamide], the IC50 reads like this: under setting [2], less than 10000 nM; under setting [1], 291 nM. On to `Cc1cnc2ccc(NC(=O)CN3CC4(CC4)c4cc(Br)ccc4C3=O)nn12` [Example 399, 2-(6-bromo-1-oxospiro[3H-isoquinoline-4,1′-cyclopropane]-2-yl)-N-(3-methylimidazo[1,2-b]pyridazin-6-yl)acetamide], for which, under setting [1], the IC50 came to 1350 nM. For `O=C(CN1CC2(CC2(F)F)c2c(ccc(Br)c2F)C1=O)Nc1ncc(C(F)(F)F)cn1` (single isomer, unassigned) [Example 324, 2-[6-bromo-1′,1′,5-trifluoro-1-oxospiro[3H-isoquinoline-4,2′-cyclopropane]-2-yl]-N-[5-(trifluoromethyl)pyrimidin-2-yl]acetamide], the IC50 under setting [4] was determined as 27 nM. As for `O=C1c2ccc(Br)cc2C2(CC2)CN1C1(C(=O)Nc2ncccn2)CC1` [Example 77, 1-(6-bromo-1-oxospiro[3H-isoquinoline-4,1′-cyclopropane]-2-yl)-N-pyrimidin-2-ylcyclopropane-1-carboxamide], the IC50 by setting is: under setting [2], less than 10000 nM; under setting [1], 3720 nM. For the compound `O=C(CN1CC2(CC2)c2cc(Br)ccc2C1=O)NCC1COC1` [Example 117, 2-(6-bromo-1-oxospiro[3H-isoquinoline-4,1′-cyclopropane]-2-yl)-N-(oxetan-3-ylmethyl)acetamide], the IC50 is greater than 15000 nM under setting [2] and 19800 nM under setting [1]. On to `O=C(CN1CC2(CC2)c2cc(Br)ccc2C1=O)Nc1cccc2ccncc12` [Example 148, 2-(6-bromo-1-oxospiro[3H-isoquinoline-4,1′-cyclopropane]-2-yl)-N-isoquinolin-8-ylacetamide], for which the IC50 is less than 10000 nM under setting [2] and 1790 nM under setting [1]. As for `O=C(CN1CC2(CC2(F)F)c2c(ccc(C3CC3)c2F)C1=O)Nc1ncc(F)cn1` (centres unmarked) [Example 322, N-(5-fluoropyrimidin-2-yl)-2-[6-cyclopropyl-1′,1′,5-trifluoro-1-oxospiro[3H-isoquinoline-4,2′-cyclopropane]-2-yl]acetamide], the IC50 under setting [1] came to 38 nM. `Cc1cnc(NC(=O)CN2C[C@@]3(C[C@@H]3F)c3cc(C(F)(F)F)ccc3C2=O)nc1` (single isomer, unassigned) [Example 245, 2-[(2′s,4r)-2′-fluoro-1-oxo-6-(trifluoromethyl)spiro[3H-isoquinoline-4,1′-cyclopropane]-2-yl]-N-(5-methylpyrimidin-2-yl)acetamide]: the IC50 reads like this: under setting [3], less than 10000 nM; under setting [4], 938 nM. For `O=C(CN1CC(C(F)(F)F)c2cc(Br)ccc2C1=O)Nc1ncc(F)cn1` (single isomer, unassigned) [Example 299, 2-[6-bromo-1-oxo-4-(trifluoromethyl)-3,4-dihydroisoquinolin-2-yl]-N-(5-fluoropyrimidin-2-yl)acetamide], the IC50 is less than 10000 nM under setting [2] and 96 nM under setting [4]. As for `O=C(CN1C[C@]2(C[C@H]2F)c2cc(C3(F)CC3)ccc2C1=O)Nc1ncc(Cl)cn1` [Example 250], the IC50 under setting [2] is less than 10000 nM and the IC50 under setting [1] came out at 14 nM. With `N#Cc1cnc(NC(=O)CN2CC3(CC3)c3cc(Br)ccc3C2=O)nc1` [Example 3], the IC50 was less than 10000 nM under setting [2] and 47 nM under setting [1].

Consider `O=C(CN1CC2(CC2)c2cc(Br)ccc2C1=O)Nc1nc2cnccn2n1` [Example 260, 2-(6-bromo-1-oxospiro[3H-isoquinoline-4,1′-cyclopropane]-2-yl)-N-([1,2,4]triazolo[1,5-a]pyrazin-2-yl)acetamide], for which the IC50 was less than 10000 nM under setting [2] and 205 nM under setting [1]. In the case of `O=C(CN1C[C@@]2(C[C@@H]2F)c2cc(C(F)(F)F)ccc2C1=O)Nc1ncccn1` (single isomer, unassigned) [Example 240, 2-[(2′s,4r)-2′-fluoro-1-oxo-6-(trifluoromethyl)spiro[3H-isoquinoline-4,1′-cyclopropane]-2-yl]-N-pyrimidin-2-ylacetamide], the IC50 was less than 10000 nM under setting [2] and 1220 nM under setting [4]. On to `O=C(CN1CC2(CC2)c2cc(Br)ccc2C1=O)Nc1ncc(C2CCC2)cn1` [Example 256, 2-(6-bromo-1-oxospiro[3H-isoquinoline-4,1′-cyclopropane]-2-yl)-N-(5-cyclobutylpyrimidin-2-yl)acetamide], for which the IC50 runs as follows: under setting [2], less than 10000 nM; under setting [1], 395 nM. On the same counts, the results for `N#Cc1cnc(NC(=O)CN2CC3(CC3)c3cc(Br)ccc3C2=O)c(F)c1` [Example 7] are less than 10000 nM and 350 nM. The matching figures for `O=C(CN1CC2(CC2)c2cc(Br)ccc2C1=O)Nc1ccc(Cl)cn1` [Example 196, 2-(6-bromo-1-oxospiro[3H-isoquinoline-4,1′-cyclopropane]-2-yl)-N-(5-chloropyridin-2-yl)acetamide]: less than 10000 nM and 516 nM.

The record behind these values is patent publication US20230416205A1, “COMPOUNDS, COMPOSITIONS, AND METHODS” (Denali Therapeutics Inc, priority 2020, published 2023).
